Measurements from patent US20240382465A1, “AROMATIC ACETYLENE DERIVATIVE, AND PREPARATION METHOD THEREFOR AND USE THEREOF” (priority 2021, published 2024).
pIC50: −log10 of the molar value. In brackets after ≈: the same amount, converted by molar mass. Read-outs that look alike come from different tables or passages of the source.

Columns and labels:
[1] = biological target: recombinant Pseudomonas aeruginosa LpxC (Pseudomonas aeruginosa (strain ATCC 15692 / DSM 22644 / CIP 104116 / JCM 14847 / LMG 12228 / 1C / PRS 101 / PAO1), UniProt P47205); test: Inhibition of LpxC enzymatic activity (fluorescamine assay); type: biochemical
How it was run: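 Recombinant P. aeruginosa LpxC (5 nM) with substrate UDP-3-O-(R-3-hydroxydecanoyl)-GlcNAc (10 μM), 120 min at 25 °C; compound 8 points, 4-fold dilution, 0.61-10,000 nM. Product detected by fluorescamine (ex 390/em 495 nm) after stopping with pH 8.0 phosphate; % inhibition versus DMSO control.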

[2] = system: E. coli ATCC 25922; test: Antibacterial activity, MIC by broth microdilution (CLSI); type: cell-based; details: Escherichia coli, ATCC25922; E. coli ATCC 25922, 35° C., 18 to 24 hours; read-out: MIC(E. coli)
How it was run: (§1)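 Broth microdilution per CLSI, compound at 64-0.06 μg/mL final in twofold steps (1% DMSO from 100× working solutions). Inoculum 5×10^5 cfu/ml; plates incubated at 35° C for 18-24 hours.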

[3] = system: K. pneumoniae ATCC13883; test: as above; type: cell-based; details: Klebsiella pneumoniae; K. pneumoniae ATCC13883, 35° C., 18 to 24 hours; read-out: MIC(K. Pneumoniae)
How it was run: as §1

[4] = recombinant P. aeruginosa LpxC 5 nM, substrate 10 μM, 25° C., 120 minutes, read-out: IC50

SMILES | pIC50 [1, 4] | MIC [2] [µg/mL] | MIC [3] [µg/mL] | pIC50 [1]
C[C@H](O)c1nccn1Cc1cc(-c2ccc(C#Cc3ccc(CN4CCN(C)CC4)cc3)cc2)on1 [Example 48, (S)-1-(1-((5-(4-((4-((4-methylpiperazin-1-yl)methyl)phenyl)ethynyl)phenyl)isoxazol-3-yl)methyl)-1H-imidazol-2-yl)ethan-1-ol] | 8.01 | 2 (≈ 4.15 µM) | 8 (≈ 16.6 µM) | 
C[C@H](O)c1nccn1Cc1cc(-c2ccc(C#Cc3ccc(CNCCS(C)(=O)=O)cc3)cc2)on1 [Example 49, (S)-1-(1-((5-(4-((4-(((2-(methylsulfonyl)ethyl)amino)methyl)phenyl)ethynyl)phenyl)isoxazol-3-yl)methyl)-1H-imidazol-2-yl)ethan-1-ol] |  | 1 (≈ 1.98 µM) | 4 (≈ 7.93 µM) | 7.96
C[C@H](O)c1nccn1Cc1cc(-c2ccc(C#Cc3ccc(CN4CCS(=O)(=O)CC4)cc3)cc2)on1 [Example 50, (S)-4-(4-((4-(3-((2-(1-hydroxyethyl)-1H-imidazol-1-yl)methyl)isoxazol-5-yl)phenyl)ethynyl)benzyl)thiomorpholine 1,1-dioxide] | 7.65 | 2 (≈ 3.87 µM) | 4 (≈ 7.74 µM) | 
C[C@H](O)c1nccn1Cc1cc(-c2ccc(C#Cc3ccc(CN4CCC(N5CCOCC5)CC4)cc3)cc2)on1 [Example 51, (S)-1-(1-((5-(4-((4-((4-morpholinopiperidin-1-yl)methyl)phenyl)ethynyl)phenyl)isoxazol-3-yl)methyl)-1H-imidazol-2-yl)ethan-1-ol] | 8.17 | 2 (≈ 3.63 µM) | 8 (≈ 14.5 µM) | 
C[C@H](O)c1nccn1Cc1cc(-c2ccc(C#Cc3ccc(CN4CC(C#N)C4)cc3)cc2)on1 [Example 52, (S)-1-(4-((4-(3-((2-(1-hydroxyethyl)-1H-imidazol-1-yl)methyl)isoxazol-5-yl)phenyl)ethynyl)benzyl)azetidin-3-carbonitrile] | 7.95 | 0.25 (≈ 0.539 µM) | 1 (≈ 2.16 µM) | 
C[C@H](O)c1nccn1Cc1cc(-c2ccc(C#Cc3ccc(CN4CC(C(N)=O)C4)cc3)cc2)on1 [Example 53, (S)-1-(4-((4-(3-((2-(1-hydroxyethyl)-1H-imidazol-1-yl)methyl)isoxazol-5-yl)phenyl)ethynyl)benzyl)azetidin-3-carboxamide] | 7.86 | 1 (≈ 2.08 µM) | 4 (≈ 8.31 µM) | 
C[C@H](O)c1nccn1Cc1cc(-c2ccc(C#Cc3ccc(CN4CCNC(=O)C4)cc3)cc2)on1 [Example 54, (S)-4-(4-((4-(3-((2-(1-hydroxyethyl)-1H-imidazol-1-yl)methyl)isoxazol-5-yl)phenyl)ethynyl)benzyl)piperazin-2-one] | 7.79 | 2 (≈ 4.15 µM) | 4 (≈ 8.31 µM) | 
C[C@H](O)c1nccn1Cc1cc(-c2ccc(C#Cc3ccc(CNCCC(=O)O)cc3)cc2)on1 [Example 55, (S)-3-((4-((4-(3-((2-(1-hydroxyethyl)-1H-imidazol-1-yl)methyl)isoxazol-5-yl)phenyl)ethynyl)benzyl)amino)propanoic acid] | 7.61 | 8 (≈ 17 µM) | 8 (≈ 17 µM) | 
C[C@H](O)c1nccn1Cc1cc(-c2ccc(C#Cc3ccc(CN4CCC(CO)CC4)cc3)cc2)on1 [Example 56, (S)-1-(1-((5-(4-((4-((4-(hydroxymethyl)piperidin-1-yl)methyl)phenyl)ethynyl)phenyl)isoxazol-3-yl)methyl)-1H-imidazol-2-yl)ethan-1-ol] | 7.83 | 2 (≈ 4.03 µM) | 4 (≈ 8.05 µM) | 
C[C@H](O)c1nccn1Cc1cc(-c2ccc(C#Cc3ccc(CNCCN)cc3)cc2)on1 [Example 57, (S)-1-(1-((5-(4-((4-(((2-aminoethyl)amino)methyl)phenyl)ethynyl)phenyl)isoxazol-3-yl)methyl)-1H-imidazol-2-yl)ethan-1-ol] | 7.85 | 2 (≈ 4.53 µM) | 4 (≈ 9.06 µM) | 
C[C@H](O)c1nccn1Cc1cc(-c2ccc(C#Cc3ccc(CCC(=O)O)nc3)cc2)on1 [Example 58, (S)-3-(5-((4-(3-((2-(1-hydroxyethyl)-1H-imidazol-1-yl)methyl)isoxazol-5-yl)phenyl)ethynyl)pyridin-2-yl)propanoic acid] | 7.66 | 4 (≈ 9.04 µM) | 8 (≈ 18.1 µM) | 
C[C@H](O)c1nccn1Cc1cc(-c2ccc(C#Cc3ccc(CNCCS(C)(=O)=O)nc3)cc2)on1 [Example 59, (S)-1-(1-((5-(4-((6-(((2-(methylsulfonyl)ethyl)amino)methyl)pyridin-3-yl)ethynyl)phenyl)isoxazol-3-yl)methyl)-1H-imidazol-2-yl)ethan-1-ol] | 7.66 | 2 (≈ 3.96 µM) | 8 (≈ 15.8 µM) | 
C[C@H](O)c1nccn1Cc1cc(-c2ccc(C#Cc3ccc(CNCCO)nc3)cc2)on1 [Example 60] | 7.58 | 2 (≈ 4.51 µM) | 4 (≈ 9.02 µM) | 
C[C@H](O)c1nccn1Cc1cc(-c2ccc(C#Cc3ccc(CNCC(N)=O)nc3)cc2)on1 [Example 61] | 7.13 | 1 (≈ 2.19 µM) | 4 (≈ 8.76 µM) | 
C[C@H](O)c1nccn1Cc1cc(-c2ccc(C#Cc3ccc(CC(N)=O)nc3)cc2)on1 [Example 62, (S)-2-(5-((4-(3-((2-(1-hydroxyethyl)-1H-imidazol-1-yl)methyl)isoxazol-5-yl)phenyl)ethynyl)pyridin-2-yl)acetamide] | 7.67 | 1 (≈ 2.34 µM) | 4 (≈ 9.36 µM) | 
C[C@H](O)c1nccn1Cc1cc(-c2ccc(C#Cc3cccc(C(N)=O)c3)cc2)on1 [Example 63, (S)-3-((4-(3-((2-(1-hydroxyethyl)-1H-imidazol-1-yl)methyl)isoxazol-5-yl)phenyl)ethynyl)benzamide] | 7.19 | 2 (≈ 4.85 µM) | 4 (≈ 9.7 µM) | 
C[C@H](O)c1nccn1Cc1cc(-c2ccc(C#Cc3cccc(OCC(N)=O)c3)cc2)on1 [Example 64, (S)-2-(3-((4-(3-((2-(1-hydroxyethyl)-1H-imidazol-1-yl)methyl)isoxazol-5-yl)phenyl)ethynyl)phenoxy)acetamide] | 7.67 | 4 (≈ 9.04 µM) | 2 (≈ 4.52 µM) | 
C[C@H](O)c1nccn1Cc1cc(-c2ccc(C#Cc3ccc(OCCCN4CCOCC4)cc3)cc2)on1 [Example 75, (S)-1-(1-((5-(4-((4-(3-morpho-linopropoxy)phenyl)ethynyl)phenyl)isoxazol-3-yl)methyl)-1H-imidazol-2-yl)ethan-1-ol] | 7.21 | 1 (≈ 1.95 µM) | 2 (≈ 3.9 µM) | 
CCOC(=O)CC1CN(Cc2ccc(C#Cc3ccc(-c4cc(Cn5ccnc5[C@H](C)O)no4)cc3)cc2)C1 [Example 111, Ethyl (S)-2-(1-(4-((4-(3-((2-(1-hydroxyethyl)-1H-imidazol-1-yl)methyl)isoxazol-5-yl)phenyl)ethynyl)benzyl)azetidin-3-yl)acetate] | 8.07 | 1 (≈ 1.91 µM) | 1 (≈ 1.91 µM) | 
C[C@H](O)c1nccn1Cc1cc(-c2ccc(C#Cc3ccc(CN4CCNC(=O)C4)nc3)cc2)on1 [Example 114, (S)-4-((5-((4-(3-((2-(1-hydroxyethyl)-1H-imidazol-1-yl)methyl)isoxazol-5-yl)phenyl)ethynyl)pyridin-2-yl)methyl)piperazin-2-one] | 7.98 | 2 (≈ 4.14 µM) | 8 (≈ 16.6 µM) | 
C[C@H](O)c1nccn1Cc1cc(-c2ccc(C#Cc3ccc(CN4CC(CC(=O)O)C4)nc3)cc2)on1 [Example 115, (S)-2-(1-((5-((4-(3-((2-(1-hydroxyethyl)-1H-imidazol-1-yl)methyl)isoxazol-5-yl)phenyl)ethynyl)pyridin-2-yl)methyl)azetidin-3-yl)acetic acid] | 7.61 | 2 (≈ 4.02 µM) | 8 (≈ 16.1 µM) | 
